In ChEMBL document CHEMBL5344416, “Phenothiazines as anti-cancer agents: SAR overview and synthetic strategies” (Eur J Med Chem, 2023):
Values belong to the molecule of their own block, whether it stands above or below them.

Legend:
U-251 = assay: Antiproliferative activity against human U-251 cells assessed as reduction in cell viability incubated for 48 hrs by MTT assay; format: functional, cell-based; settings: U-251, 48 h
U-87 MG = assay: Antiproliferative activity against human U87 cells assessed as reduction in cell viability incubated for 48 hrs by MTT assay; format: functional, cell-based, U-87MG ATCC
SK-BR-3 = assay: Cytotoxicity against human SK-BR-3 cells assessed as cell growth inhibition incubated for 48 hrs by WST-1 assay; format: functional, cell-based; settings: SK-BR-3, 48 h
MDA-MB-468 = assay: Cytotoxicity against human MDA-MB-468 cells assessed as cell viability measured after 3 days by Cell Titer Blue assay; format: functional, cell-based; settings: MDA-MB-468, 72 h
[1] = Cytotoxicity in human MCF-10A cells assessed as reduction in cell viability incubated for 72 hrs by MTT assay; format: toxicity, cell-based
MDA-MB-231 [2] = assay: Cytotoxicity against human MDA-MB-231 cells assessed as reduction in cell viability incubated for 24 hrs by MTT assay; format: functional, cell-based; settings: MDA-MB-231, 24 h
MCF7 [3] = assay: Cytotoxicity against human MCF7 cells assessed as reduction in cell growth incubated for 96 hrs by MTT assay; format: functional, cell-based; settings: MCF7, 96 h
T47D = assay: Cytotoxicity against human T47D cells assessed as reduction in cell viability after 48 hrs by MTT assay; format: functional, cell-based
CT26 [4] = assay: Antitumor activity against mouse CT26 cells assessed as reduction in cell viability incubated for 4 hrs by MTT assay; format: functional, cell-based; settings: CT26, 4 h
CT26 [5] = assay: Antitumor activity against mouse CT26 cells assessed as tumor growth inhibition incubated for 4 hrs by MTT assay relative to control; format: functional; parameters: scale not given: the % may be the effect or the level left
MRC5 = assay: Cytotoxicity against human MRC5 cells assessed as reduction in cell growth incubated for 48 hrs by CCK8 assay; format: functional, cell-based; settings: MRC5, 48 h
ASPC1 [6] = assay: Antiproliferative activity against human AsPC1 cells assessed as inhibition of cell proliferation incubated for 6 days by CCK8 assay; format: functional, cell-based; settings: ASPC1, 144 h
SW1990 [7] = assay: Antiproliferative activity against human SW1990 cells assessed as reduction in cell viability; format: functional, cell-based
[8] = Antioxidant activity assessed as DPPH radical scavenging activity incubated for 30 mins; format: functional
ASPC1 [9] = assay: Anticancer activity against human ASPC1 cells assessed as reduction in cell growth incubated for 72 hrs by MTT assay; format: functional, cell-based; settings: ASPC1, 72 h
SW1990 [10] = assay: Anticancer activity against human SW1990 cells assessed as reduction in cell viability incubated for 72 hrs by MTT assay; format: functional, cell-based; settings: SW1990, 72 h
HepG2 [11] = assay: Cytotoxicity against human HepG2 cells assessed as reduction in cell viability incubated for 48 hrs by MTT assay; format: functional, cell-based; settings: HepG2, 48 h
MCF7 [12] = assay: Cytotoxicity against human MCF7 cells assessed as cell growth inhibition measured after 48 hrs by MTT assay; format: functional, cell-based; settings: MCF7, 48 h
[13] = Antiproliferative activity against human PBMC cells assessed as reduction in cell viability measured after 24 hrs by MTT assay; format: functional, cell-based
HL-60 = assay: Antiproliferative activity against human HL-60 cells assessed as cell growth inhibition measured after 24 hrs by MTT assay; format: functional, cell-based; settings: HL-60, 24 h
THP-1 = assay: Antiproliferative activity against human THP-1 cells assessed as cell growth inhibition measured after 24 hrs by MTT assay; format: functional, cell-based; settings: THP-1, 24 h
MCF7 [14] = assay: Anticancer activity against human MCF7 cells assessed as inhibition of cell growth incubated for 48 hrs by MTT assay; format: functional, cell-based; settings: MCF7, 48 h
MDA-MB-231 [15] = assay: Anticancer activity against human MDA-MB-231 cells assessed as reduction in cell viability measured after 72 hrs by MTT assay; format: functional, cell-based; settings: MDA-MB-231, 72 h
TC-32 = assay: Anticancer activity against human TC-32 cells assessed as reduction in cell growth incubated for 48 hrs by SRB assay; format: functional, cell-based; settings: TC-32, 48 h
SNB-19 = assay: Anticancer activity against human SNB-19 cells assessed as reduction in cell growth incubated for 48 hrs by SRB assay; format: functional, cell-based; settings: SNB-19, 48 h
ASPC1 [16] = assay: Cytotoxicity against human ASPC1 cells assessed as reduction in cell viability incubated for 24 hrs by MTT assay; format: functional, cell-based; settings: ASPC1, 24 h
SW1990 [17] = assay: Cytotoxicity against human SW1990 cells measured after 8 days; format: functional, cell-based; settings: SW1990, 192 h
PANC-1 = assay: Cytotoxicity against human PANC-1 cells assessed as cell growth inhibition incubated for 48 hrs by WST-1 assay; format: functional, cell-based; settings: PANC-1, 48 h
BXPC-3 = assay: Cytotoxicity against human BXPC-3 cells assessed as reduction in cell viability incubated for 72 hrs by MTT assay; format: functional, cell-based; settings: BXPC-3, 72 h
MGC-803 = assay: Antiproliferative activity against human MGC-803 cells assessed as reduction in cell growth by MTT assay; format: functional, cell-based
MKN-28 = assay: Antiproliferative activity against human MKN-28 cells assessed as reduction in cell viability by MTT assay; format: functional, cell-based
MKN-45 = assay: Antiproliferative activity against human MKN-45 cells assessed as cell growth inhibition by MTT assay; format: functional, cell-based
MCF7 [18] = assay: Antiproliferative activity against human MCF7 cells assessed as cell growth inhibition by MTT assay; format: functional, cell-based
[19] = Cytotoxicity against human Lovo/DX cells assessed as reduction in cell viability incubated for 72 hrs by MTT assay; format: functional
LoVo [20] = assay: Cytotoxicity against human LoVo cells assessed as reduction in cell viability incubated for 72 hrs by MTT assay; format: functional
[21] = Antiproliferative activity against human Lovo/DX cells assessed as reduction in cell viability; format: functional, cell-based
LoVo [22] = assay: Antiproliferative activity against human LoVo cells assessed as reduction in cell viability incubated for 48 hrs by MTT assay; format: functional, cell-based
A549 = assay: Anticancer activity against human A549 cells assessed as inhibition of cell proliferation measured after 48 hrs by MTT assay; format: functional, cell-based; settings: A549, 48 h
HepG2 [23] = assay: Anticancer activity against human HepG2 cells assessed as inhibition of cell proliferation measured after 48 hrs by MTT assay; format: functional, cell-based; settings: HepG2, 48 h

SMILES: CCN1c2ccc(-c3ccccc3)cc2Sc2cc(-c3nnc4ccccn34)ccc21
IC50 (SK-BR-3): 31.5 µM
IC50 (MDA-MB-468): 9.7 µM
IC50 at 72 h [1]: 13.4 µM
IC50 (MDA-MB-231 [2]): 19.4 µM
IC50 (MCF7 [3]): 6.2 µM
IC50 (T47D): 11.7 µM

SMILES: CCCCCCCCCCCCN1c2ccccc2Sc2ccc(C(=O)/C=C/c3ccc(Cl)cc3)cc21
IC50 (HepG2 [11]): 7.14 µM
IC50 (MCF7 [12]): 13.8 µM

SMILES: CCN(C)CC#CCN1c2ccncc2Sc2ncccc21
IC50 (MDA-MB-231 [15]): 2.81 µM
IC50 (TC-32): 1.53 µM
IC50 (SNB-19): 0.11 µM

SMILES: CC1=C(C(=O)Nc2ccc(Cl)c(Cl)c2)C(c2ccc3c(c2)Sc2ccccc2N3)C(C(=O)Nc2ccc(Cl)c(Cl)c2)=C(C)N1
IC50 (MRC5): 70.5 µM
IC50 (ASPC1 [16]): 6.31 µM
IC50 (SW1990 [17]): 6.31 µM
IC50 (PANC-1): 6.31 µM
IC50 (BXPC-3): 6.31 µM

SMILES: CCN(CC)CC#CCN1c2ccncc2Sc2ncccc21
IC50 (MDA-MB-231 [15]): 6.32 µM
IC50 (TC-32): 0.54 µM
IC50 (SNB-19): 0.11 µM

SMILES: CC(=O)c1ccc(N2CCN(CC(O)CN3c4ccccc4Sc4ccc(C(F)(F)F)cc43)CC2)cc1 (configuration not stated)
IC20 [19]: 4 µM
IC20 (LoVo [20]): 3 µM
IC50 [21]: 100 µM
IC50 (LoVo [22]): 100 µM

SMILES: COc1ccc(N/N=C2/SC(N/N=C(\C)c3ccc4c(c3)Nc3ccccc3S4)=NC2=O)cc1
IC50 (A549): 5.37 µM
IC50 (HepG2 [23]): 5.37 µM

SMILES: OCCN1CCN(CCCN2c3ccccc3Sc3ccc(C(F)(F)F)cc32)CC1 [FLUPHENAZINE]
IC20 [19]: 22 µM
IC20 (LoVo [20]): 22 µM
IC50 [21]: 80 µM
IC50 (LoVo [22]): 80 µM

Continued, in another order:

IC50 (U-251): 9.29 µM
IC50 (U-87 MG): 5.12 µM
SMILES: O=[N+]([O-])c1ccccc1S(=O)(=O)N1c2ccccc2Sc2ccc(Cl)cc21

IC50 (CT26 [4]): 286 µM
SMILES: COCCOCCOCCOCCOCCOCCOCCOCCOCCOCCOCCOC(=O)CN1c2ccccc2Sc2ccccc21
Activity (CT26 [5]): 92%

IC50 (ASPC1 [6]): 15.7 µM
IC50 (SW1990 [7]): 22.8 µM
SMILES: CCN1c2ccccc2Sc2cc(C3NC(=O)NC(C)=C3C(=O)Nc3ccccc3)ccc21 (configuration not stated)
IC50 (MRC5): 83.7 µM

IC50 [8]: 37.3 µM
IC50 (ASPC1 [9]): 25.3 µM
IC50 (SW1990 [10]): 13.3 µM
SMILES: CCCCCN1c2ccccc2Sc2cc(/C=C(\C#N)C(N)=O)ccc21

IC50 (HL-60): 67.3 µM
IC50 (THP-1): 21.6 µM
SMILES: CCCCCCCCCCc1nc2cc3c(cc2s1)N(C)c1ccccc1S3
IC50 [13]: > 2000 µM

IC50 (MCF7 [14]): 3.45 µM
SMILES: COCCSc1nnc(CN2c3ccccc3Sc3ccc(Cl)cc32)s1

IC50 (MGC-803): 1.2 µM
IC50 (MKN-28): 2.7 µM
IC50 (MKN-45): 3.5 µM
SMILES: COc1ccc(-n2cc(CN3c4ccccc4Sc4ccccc43)nn2)c([N+](=O)[O-])c1

IC50 (MCF7 [18]): 0.42 µM
SMILES: CN(C)CCN1CCN(CCCN2c3ccccc3Sc3ccc(C(F)(F)F)cc32)CC1
